Measurements published in ChEMBL document CHEMBL3044753, “Polyamines May Modulate Both G Protein-Coupled Receptors and G Proteins” (Med Chem Res, 2004).
The source made the active and inactive calls. The rule behind the calls is not given here.

Experiments:
Left cardiac atrium [1] = assay: Negative ionotropic activity in electrically-paced Cavia porcellus (guinea pig) left atrium measured after 60 min by isometric transducer analysis in presence of benextramine/4-DAMP mustard relative to N-dodecyl lysine amide; format: functional
[2] = molecular target: Muscarinic acetylcholine receptor M3 (Homo sapiens) (UniProt P20309); assay: Binding affinity to Homo sapiens (human) recombinant muscarinic M3 receptor expressed in CHO cells assessed as [35S]GTPgammaS binding; format: functional, cell-based
Right cardiac atrium [3] = assay: Negative ionotropic activity in electrically-paced Cavia porcellus (guinea pig) right atrium measured after 60 min by isometric transducer analysis in presence of benextramine; format: functional, tissue-based
Left cardiac atrium [4] = assay: Negative ionotropic activity in electrically-paced Cavia porcellus (guinea pig) left atrium measured after 60 min by isometric transducer analysis in presence of DPCPX; format: functional, tissue-based
Right cardiac atrium [5] = assay: Negative ionotropic activity in electrically-paced Cavia porcellus (guinea pig) right atrium measured after 60 min by isometric transducer analysis in presence of pimozide; format: functional, tissue-based
Left cardiac atrium [6] = assay: Negative ionotropic activity in electrically-paced Cavia porcellus (guinea pig) left atrium measured after 60 min by isometric transducer analysis in presence of benextramine/4-DAMP mustard; format: functional, tissue-based; details: 1 h
Right cardiac atrium [7] = assay: Negative […] activity in electrically-paced Cavia porcellus (guinea pig) right atrium assessed as effect on force measured after 60 min by isometric transducer analysis in absence of benextramine/4-DAMP mustard; format: functional, tissue-based; details: 1 h
Right cardiac atrium [8] = assay: Negative ionotropic activity in electrically-paced Cavia porcellus (guinea pig) right atrium measured after 60 min by isometric transducer analysis in presence of benzalkonium; format: functional, tissue-based
Left cardiac atrium [9] = assay: Negative ionotropic activity in electrically-paced Cavia porcellus (guinea pig) left atrium measured after 60 min by isometric transducer analysis in presence of 4-DAMP mustard; format: functional, tissue-based
Left cardiac atrium [10] = assay: Negative ionotropic activity in electrically-paced Cavia porcellus (guinea pig) left atrium measured after 60 min by isometric transducer analysis in presence of dihydroergocristine; format: functional, tissue-based
[11] = molecular target: T1, Muscarinic acetylcholine receptor M4 (Homo sapiens) (UniProt P08173); assay: Allosteric modulation of Homo sapiens (human) recombinant muscarinic M4 receptor expressed in CHO cells assessed as inhibition of carbachol-induced [35S]GTPgammaS binding; format: functional, cell-based
T1 sequence (whole entry): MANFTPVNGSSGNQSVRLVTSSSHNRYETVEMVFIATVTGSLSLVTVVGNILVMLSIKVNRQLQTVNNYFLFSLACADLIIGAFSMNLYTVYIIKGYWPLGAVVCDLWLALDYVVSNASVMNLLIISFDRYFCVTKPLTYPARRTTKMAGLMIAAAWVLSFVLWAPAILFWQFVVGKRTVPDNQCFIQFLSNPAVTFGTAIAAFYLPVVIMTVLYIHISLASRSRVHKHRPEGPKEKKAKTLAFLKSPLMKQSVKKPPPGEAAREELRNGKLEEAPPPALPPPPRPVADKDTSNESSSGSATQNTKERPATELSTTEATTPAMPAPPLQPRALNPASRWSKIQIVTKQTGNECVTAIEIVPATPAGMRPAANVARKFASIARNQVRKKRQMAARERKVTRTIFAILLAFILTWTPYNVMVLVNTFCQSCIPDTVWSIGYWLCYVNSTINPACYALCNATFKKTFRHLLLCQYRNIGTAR

Right cardiac atrium [12] = assay: Negative ionotropic activity in electrically-paced Cavia porcellus (guinea pig) right atrium measured after 60 min by isometric transducer analysis in presence of bupranolol; format: functional, tissue-based
[13] = molecular target: T2, Muscarinic acetylcholine receptor M2 (Homo sapiens) (UniProt P08172); assay: Allosteric modulation of Homo sapiens (human) recombinant muscarinic M2 receptor expressed in CHO cells assessed as inhibition of N-[3H]methylscopalamine dissociation at 20 uM incubated at 1 hr post N-[3H]methylscopalamine addition measured after 5 min by filter binding assay; format: cell-based
T2 sequence (whole entry): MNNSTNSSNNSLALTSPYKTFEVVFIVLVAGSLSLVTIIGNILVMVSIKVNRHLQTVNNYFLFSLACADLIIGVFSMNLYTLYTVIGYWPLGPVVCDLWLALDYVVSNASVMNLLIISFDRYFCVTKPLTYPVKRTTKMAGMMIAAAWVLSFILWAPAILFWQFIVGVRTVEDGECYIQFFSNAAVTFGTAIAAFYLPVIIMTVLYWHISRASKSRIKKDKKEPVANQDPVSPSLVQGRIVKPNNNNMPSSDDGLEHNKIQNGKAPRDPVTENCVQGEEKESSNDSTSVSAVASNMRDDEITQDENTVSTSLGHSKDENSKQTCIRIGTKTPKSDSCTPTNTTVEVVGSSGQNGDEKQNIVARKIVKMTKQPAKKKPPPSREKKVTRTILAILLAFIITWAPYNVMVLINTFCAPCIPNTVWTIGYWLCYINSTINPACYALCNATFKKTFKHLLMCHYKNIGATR

[14] = molecular target: T3, Muscarinic acetylcholine receptor M1 (Homo sapiens) (UniProt P11229); assay: Binding affinity to Homo sapiens (human) recombinant muscarinic M1 receptor expressed in CHO cells assessed as [35S]GTPgammaS binding; format: functional, cell-based
T3 sequence (whole entry): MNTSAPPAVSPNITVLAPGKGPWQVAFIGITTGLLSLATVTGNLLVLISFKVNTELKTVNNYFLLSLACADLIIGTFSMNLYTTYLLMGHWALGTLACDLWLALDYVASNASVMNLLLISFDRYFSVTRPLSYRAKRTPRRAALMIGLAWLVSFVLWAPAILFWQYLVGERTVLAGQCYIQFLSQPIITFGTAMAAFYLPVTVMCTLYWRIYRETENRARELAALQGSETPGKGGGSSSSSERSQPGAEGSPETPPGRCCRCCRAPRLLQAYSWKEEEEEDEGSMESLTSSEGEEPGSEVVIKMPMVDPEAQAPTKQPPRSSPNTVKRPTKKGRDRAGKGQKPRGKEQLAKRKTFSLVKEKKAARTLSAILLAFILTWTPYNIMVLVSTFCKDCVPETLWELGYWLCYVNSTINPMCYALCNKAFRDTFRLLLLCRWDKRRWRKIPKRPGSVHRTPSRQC

[15] = molecular target: T4, Muscarinic acetylcholine receptor M5 (Homo sapiens) (UniProt P08912); assay: Allosteric modulation of Homo sapiens (human) recombinant muscarinic M5 receptor expressed in CHO cells assessed as inhibition of carbachol-induced [35S]GTPgammaS binding; format: functional, cell-based
T4 sequence (whole entry): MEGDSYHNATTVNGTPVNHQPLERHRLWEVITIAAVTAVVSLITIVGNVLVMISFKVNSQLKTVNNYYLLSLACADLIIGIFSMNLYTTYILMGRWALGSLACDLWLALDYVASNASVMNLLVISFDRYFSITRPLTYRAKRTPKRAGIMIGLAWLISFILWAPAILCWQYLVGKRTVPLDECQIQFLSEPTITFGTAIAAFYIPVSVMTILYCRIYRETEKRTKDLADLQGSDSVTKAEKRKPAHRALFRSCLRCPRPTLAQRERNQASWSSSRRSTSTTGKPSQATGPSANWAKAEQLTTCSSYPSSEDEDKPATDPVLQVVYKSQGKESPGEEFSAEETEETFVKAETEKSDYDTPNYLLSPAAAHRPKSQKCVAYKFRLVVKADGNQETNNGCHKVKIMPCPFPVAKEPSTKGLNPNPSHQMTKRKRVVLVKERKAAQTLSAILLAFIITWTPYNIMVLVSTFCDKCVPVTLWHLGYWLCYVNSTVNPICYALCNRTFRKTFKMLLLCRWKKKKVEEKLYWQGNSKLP

Chain of Muscarinic acetylcholine receptor M3 (Homo sapiens) (P20309 whole entry, looked up): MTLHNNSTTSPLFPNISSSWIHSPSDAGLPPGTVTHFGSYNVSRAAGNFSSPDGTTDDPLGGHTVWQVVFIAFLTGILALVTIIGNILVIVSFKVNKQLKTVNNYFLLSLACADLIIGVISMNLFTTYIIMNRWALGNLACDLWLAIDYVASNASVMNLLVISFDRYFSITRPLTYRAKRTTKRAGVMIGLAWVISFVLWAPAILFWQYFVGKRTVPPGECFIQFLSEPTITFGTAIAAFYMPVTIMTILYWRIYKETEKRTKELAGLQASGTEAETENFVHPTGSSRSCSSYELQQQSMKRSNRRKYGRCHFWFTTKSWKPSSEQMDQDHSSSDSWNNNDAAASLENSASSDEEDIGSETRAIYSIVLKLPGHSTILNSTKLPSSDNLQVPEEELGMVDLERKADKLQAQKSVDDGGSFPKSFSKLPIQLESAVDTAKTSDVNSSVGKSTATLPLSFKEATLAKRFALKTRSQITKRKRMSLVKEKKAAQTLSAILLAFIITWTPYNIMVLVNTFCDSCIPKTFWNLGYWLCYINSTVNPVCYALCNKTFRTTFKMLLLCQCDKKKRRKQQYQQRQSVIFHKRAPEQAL

SMILES: COc1ccccc1CN1CCC(C2CCN(C(=O)CCCCCCC(=O)N3CCC(C4CCN(Cc5ccccc5OC)CC4)CC3)CC2)CC1 [PIPERTRAMINE AMIDE]
- Efficacy (Left cardiac atrium [1]): 85%
- Activity [2]: inactive
- Activity (Right cardiac atrium [3]): Active
- Activity (Left cardiac atrium [4]): Active
- Activity (Right cardiac atrium [5]): Active
- EC50 (Left cardiac atrium [6]): 0.589 nM
- EC50 (Right cardiac atrium [7]): 3.89 nM
- Activity (Right cardiac atrium [8]): inactive
- Activity (Left cardiac atrium [9]): Active
- Activity (Left cardiac atrium [10]): Active
- Activity [11]: Active
- Activity (Right cardiac atrium [12]): Active
- inhibition [13]: Active
- Activity [14]: inactive
- Activity [15]: Active

SMILES: COc1ccccc1CN1CCC(C2CCN(CCCCCCCCN3CCC(C4CCN(Cc5ccccc5OC)CC4)CC3)CC2)CC1 [PIPERTRAMINE]
- Efficacy (Left cardiac atrium [1]): 96%
- Activity [2]: inactive
- Activity (Right cardiac atrium [3]): Active
- Activity (Left cardiac atrium [4]): Active
- Activity (Right cardiac atrium [5]): Active
- EC50 (Left cardiac atrium [6]): 0.331 nM
- EC50 (Right cardiac atrium [7]): 0.275 nM
- Activity (Right cardiac atrium [8]): inactive
- Activity (Left cardiac atrium [9]): Active
- Activity (Left cardiac atrium [10]): Active
- Activity [11]: Active
- Activity (Right cardiac atrium [12]): Active
- inhibition [13]: Active
- Activity [14]: inactive
- Activity [15]: Active
